Test results as given in the supplement of paper PMC10307832.

Experiments:
Test in all cases: relative viability (nuclei count vs DMSO), 5 days (fraction); higher = more cells survive
[1] = compound: CN(C)C[C@@H]1CCn2cc(c3ccccc32)C2=C(C(=O)NC2=O)c2cn(c3ccccc23)CCO1 [Ruboxistaurin] + CC(=O)c1c(C)c2cnc(Nc3ccc(N4CCNCC4)cn3)nc2n(C2CCCC2)c1=O [Palbociclib] (partner 0.5 µM)
Outline: (§1)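 After 5 days of treatment, lung cancer cells in 1536-well plates were fixed and stained in a single step (final 0.05% Triton X-100, 1% formaldehyde, 1 ug/ml Hoechst) and their nuclei counted on 4× images. Treatment had been applied by pin tool the day after seeding as one drug alone or as a fixed anchor-drug dose with five library-drug doses (not always all listed) in √10 steps. Relative viability is the nuclei count of treated wells divided by that of vehicle wells, and values are medians of duplicate plates.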

[2] = compound: CN(C)C[C@@H]1CCn2cc(c3ccccc32)C2=C(C(=O)NC2=O)c2cn(c3ccccc23)CCO1 [Ruboxistaurin] + CC(C)C[C@H](NC(=O)[C@H](Cc1ccccc1)NC(=O)c1cnccn1)B(O)O [Bortezomib] (partner 0.002 µM)
Outline: as §1

[3] = compound: CN(C)C[C@@H]1CCn2cc(c3ccccc32)C2=C(C(=O)NC2=O)c2cn(c3ccccc23)CCO1 [Ruboxistaurin] + CS(=O)(=O)CCNCc1ccc(-c2ccc3ncnc(Nc4ccc(OCc5cccc(F)c5)c(Cl)c4)c3c2)o1 [Lapatinib] (partner 2 µM)
Outline: as §1

[4] = compound: CN(C)C[C@@H]1CCn2cc(c3ccccc32)C2=C(C(=O)NC2=O)c2cn(c3ccccc23)CCO1 [Ruboxistaurin] + CS(=O)(=O)N1CCN(Cc2cc3nc(-c4cccc5[nH]ncc45)nc(N4CCOCC4)c3s2)CC1 [Pictilisib] (partner 1 µM)
Outline: as §1

[5] = compound: CN(C)C[C@@H]1CCn2cc(c3ccccc32)C2=C(C(=O)NC2=O)c2cn(c3ccccc23)CCO1 [Ruboxistaurin] + Nc1nc2[nH]cc(CCc3ccc(C(=O)N[C@@H](CCC(=O)O)C(=O)O)cc3)c2c(=O)[nH]1 [Pemetrexed] (partner 0.2 µM)
Outline: as §1

Row | Cell Line | relative viability ([1]; first compound 0.08 µM) | relative viability ([1]; first compound 0.8 µM) | relative viability ([1]; first compound 2.53 µM) | relative viability ([1]; first compound 8 µM) | relative viability ([2]; first compound 0.08 µM) | relative viability ([2]; first compound 0.8 µM) | relative viability ([2]; first compound 2.53 µM) | relative viability ([2]; first compound 8 µM) | relative viability ([3]; first compound 0.08 µM) | relative viability ([3]; first compound 0.8 µM) | relative viability ([3]; first compound 2.53 µM) | relative viability ([3]; first compound 8 µM) | relative viability ([4]; first compound 0.08 µM) | relative viability ([4]; first compound 0.8 µM) | relative viability ([4]; first compound 2.53 µM) | relative viability ([4]; first compound 8 µM) | relative viability ([5]; first compound 0.08 µM) | relative viability ([5]; first compound 0.8 µM) | relative viability ([5]; first compound 2.53 µM) | relative viability ([5]; first compound 8 µM)
1 | 201T | 0.357 | 0.344 | 0.353 | 0.37 | 1.12 | 1.08 | 1.12 | 1.15 | 1.06 | 1 | 1.06 | 1.05 | 0.729 | 0.629 | 0.742 | 0.555 | 0.31 | 0.327 | 0.311 | 0.31
2 | A549 |  |  |  |  |  |  |  |  | 1.03 | 0.838 | 0.866 | 0.753 | 0.567 | 0.423 | 0.385 | 0.223 |  |  |  | 
3 | A-427 | 0.554 | 0.524 | 0.5 | 0.538 | 1.01 | 0.952 | 0.97 | 0.731 | 0.995 | 0.988 | 0.917 | 0.983 | 0.7 | 0.594 | 0.738 | 0.557 | 0.994 | 0.926 | 0.958 | 0.923
4 | ABC-1 | 0.953 | 0.724 | 0.968 | 1.05 | 0.357 | 0.339 | 0.308 | 0.261 | 1.48 | 1.01 | 1.06 | 1.47 | 0.865 | 0.774 | 0.787 | 0.506 |  |  |  | 
5 | BEN | 0.415 | 0.453 | 0.522 | 0.495 | 0.903 | 0.78 | 0.702 | 0.677 | 0.803 | 0.617 | 0.708 | 0.564 | 0.604 | 0.538 | 0.535 | 0.406 | 0.801 | 0.695 | 0.716 | 0.528
6 | CAL-12T | 0.476 | 0.426 | 0.419 | 0.483 | 1.12 | 0.981 | 1.06 | 1.11 | 0.735 | 0.554 | 0.765 | 0.78 | 0.482 | 0.349 | 0.395 | 0.386 | 1.35 | 1.19 | 1.12 | 1.28
7 | COR-L23 | 0.261 | 0.267 | 0.313 | 0.372 | 1.1 | 0.797 | 0.968 | 1.35 | 1.23 | 0.914 | 1.09 | 1.08 | 0.802 | 0.688 | 0.676 | 0.59 | 0.193 | 0.182 | 0.204 | 0.192
8 | COR-L 105 | 0.418 | 0.389 | 0.411 | 0.416 | 0.906 | 0.651 | 0.823 | 0.685 | 0.335 | 0.385 | 0.365 | 0.341 | 0.463 | 0.388 | 0.385 | 0.313 | 1.3 | 0.912 | 1.05 | 1.26
9 | ChaGo-K-1 | 0.898 | 0.889 | 0.933 | 0.98 | 1.27 | 1.06 | 1.05 | 0.939 |  |  |  |  | 1.23 | 0.758 | 0.655 | 0.424 | 0.272 | 0.247 | 0.26 | 0.267
10 | EKVX | 0.414 | 0.318 | 0.424 | 0.321 | 1.15 | 0.998 | 1.18 | 0.946 | 0.2 | 0.19 | 0.216 | 0.188 | 0.53 | 0.423 | 0.438 | 0.354 | 0.413 | 0.401 | 0.373 | 0.393
11 | EMC-BAC-2 | 0.51 | 0.506 | 0.514 | 0.493 | 1.1 | 0.99 | 1.04 | 0.962 | 0.879 | 0.856 | 0.866 | 0.802 | 0.59 | 0.47 | 0.491 | 0.426 | 0.419 | 0.415 | 0.384 | 0.383
12 | EPLC-272H | 0.312 | 0.352 | 0.285 | 0.317 | 1.04 | 0.691 | 1.01 | 1.01 | 0.966 | 0.916 | 0.933 | 0.962 | 0.341 | 0.303 | 0.343 | 0.294 | 0.32 | 0.359 | 0.352 | 0.325
13 | H3255 | 0.318 | 0.336 | 0.329 | 0.364 | 0.854 | 0.844 | 0.869 | 0.732 | 0.221 | 0.217 | 0.27 | 0.221 | 0.566 | 0.521 | 0.498 | 0.462 | 0.595 | 0.556 | 0.614 | 0.534
14 | HARA | 0.214 | 0.263 | 0.266 | 0.326 | 1.22 | 1.04 | 1.15 | 0.465 | 0.803 | 0.672 | 0.712 | 0.57 | 0.431 | 0.327 | 0.325 | 0.137 | 0.262 | 0.297 | 0.236 | 0.248
15 | HCC-15 | 0.748 | 0.694 | 0.734 | 0.745 | 1.09 | 1.01 | 1.14 | 1.2 | 0.879 | 0.88 | 0.879 | 0.947 | 0.774 | 0.689 | 0.558 | 0.662 | 0.224 | 0.207 | 0.221 | 0.2
16 | HCC-44 | 0.986 | 1 | 0.953 | 0.968 | 0.956 | 0.868 | 0.983 | 0.969 | 0.982 | 1 | 1.03 | 1.1 | 0.622 | 0.37 | 0.596 | 0.511 | 0.666 | 0.556 | 0.642 | 0.638
